Experimental data published in paper PMC3770139 (Molecular cell, 2013).

Target: T1, Gpa1 (yeast Gα) (Saccharomyces cerevisiae, UniProt P08539)
T1 sequence (P08539 2-472): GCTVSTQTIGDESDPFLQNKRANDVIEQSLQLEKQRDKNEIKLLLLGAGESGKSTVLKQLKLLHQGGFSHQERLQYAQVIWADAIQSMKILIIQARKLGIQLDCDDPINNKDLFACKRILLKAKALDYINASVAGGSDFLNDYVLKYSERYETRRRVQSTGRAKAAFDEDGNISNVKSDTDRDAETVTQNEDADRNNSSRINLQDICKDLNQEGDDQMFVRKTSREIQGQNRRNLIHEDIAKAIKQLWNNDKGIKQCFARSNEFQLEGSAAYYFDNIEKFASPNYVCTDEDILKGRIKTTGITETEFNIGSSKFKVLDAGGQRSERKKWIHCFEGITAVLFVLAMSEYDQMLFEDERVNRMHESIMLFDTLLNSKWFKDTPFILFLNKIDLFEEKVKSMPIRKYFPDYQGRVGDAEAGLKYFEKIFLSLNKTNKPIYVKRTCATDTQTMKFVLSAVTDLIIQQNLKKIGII
Test: steady-state hydrolysis of gamma-32P GTP, charcoal assay
Format: biochemical
Conditions: turnover only; 5 µM GTP, 1 mM MgCl2, 37 °C, pH 6.0, 7.0, 8.0

Nc1nc2c(ncn2[C@@H]2O[C@H](COP(=O)(O)OP(=O)(O)OP(=O)(O)O)[C@@H](O)[C@H]2O)c(=O)[nH]1 [GTP]
steady-state hydrolysis of gamma-32P GTP, charcoal assay: Steady-state GTP hydrolysis by yeast Gpa1 and mammalian Gαi
